Assay results from patent US11066414B2, “Cot modulators and methods of use thereof” (Gilead Sciences, Inc., priority 2015, dated 2021).
Read-outs that look alike come from different tables or passages of the source.

Legend:
TNFα = experiment: Cot Monocyte TNFα Cell Based Assay; conditions: Homo sapiens, Monocyte
Human Cot = Human Cot (Homo sapiens (Human), UniProt P41279); experiment: High Throughput Cot Biochemical Assay; conditions: IC50 HTRF
[1] = read-out: EC50 TNF, LPS-stimulated human monocytes, TNFα
[2] = Cot HTRF (TR-FRET) biochemical assay
[3] = read-out: EC50 TNF, LPS-stimulated human monocytes, TNFα TR-FRET
[4] = Cot HTRF (TR-FRET KinEASE) biochemical assay, 400 μM ATP

Human Cot, sequence (P41279 30-397): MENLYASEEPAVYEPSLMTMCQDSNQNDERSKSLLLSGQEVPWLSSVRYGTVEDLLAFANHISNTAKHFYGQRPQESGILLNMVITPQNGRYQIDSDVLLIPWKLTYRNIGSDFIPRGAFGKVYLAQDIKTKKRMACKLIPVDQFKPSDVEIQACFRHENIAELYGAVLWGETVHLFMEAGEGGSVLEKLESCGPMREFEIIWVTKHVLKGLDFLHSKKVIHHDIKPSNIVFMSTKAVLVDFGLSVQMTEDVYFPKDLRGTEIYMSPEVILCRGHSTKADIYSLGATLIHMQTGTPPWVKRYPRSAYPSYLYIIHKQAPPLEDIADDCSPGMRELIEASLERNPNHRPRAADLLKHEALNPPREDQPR

SMILES | EC50 (TNFα; [1]) [µM] | IC50 (Human Cot; [2]) [µM] | EC50 (TNFα; [3]) [µM] | IC50 (Human Cot; [4]) [µM]
Cn1cncc1[C@H](Nc1cc(Cl)c2ncc(C#N)c(Nc3ccc(F)c(Cl)c3)c2c1)c1cn(C2CCN(C(C)(C)C)CC2)nn1 [Example 342, (S)-6-(((1-(1-(tert-butyl)piperidin-4-yl)-1H-1,2,3-triazol-4-yl)(1-methyl-1H-imidazol-5-yl)methyl)amino)-8-chloro-4-((3-chloro-4-fluorophenyl)-amino)quinoline-3-carbonitrile] | 6.09 | 0.038 |  | 
CC1(C)COCC[C@@H]1Nc1c(C#N)cnc2c(C#N)cc(N[C@H](c3cn(C4(C(F)(F)F)CC4)nn3)c3cccc4ncsc34)cc12 [Example 475, 6-(((S)-benzo[d]thiazol-7-yl(1-(1-(trifluoromethyl)cyclopropyl)-1H-1,2,3-triazol-4-yl)methyl)amino)-4-(((S)-3,3-dimethyltetrahydro-2H-pyran-4-yl)amino)quinoline-3,8-dicarbonitrile] | 0.258 | 0.02 |  | 
Cn1ccc2c([C@H](Nc3cc(C#N)c4ncc(C#N)c(NCC(C)(C)C)c4c3)c3cn(C4(C(F)(F)F)CC4)nn3)cccc2c1=O [Example 631, (S)-6-(((2-methyl-1-oxo-1,2-dihydroisoquinolin-5-yl)(1-(1-(trifluoromethyl)-cyclopropyl)-1H-1,2,3-triazol-4-yl)methyl)amino)-4-(neopentylamino)quinoline-3,8-dicarbonitrile] | 0.032 | 0.002 |  | 
CC(C)(C)CNc1c(C#N)cnc2c(Br)cc(N[C@H](c3cn(C4CC4)nn3)c3cccc4nc(N)sc34)cc12 [Example 70, (S)-6-(((2-aminobenzo[d]thiazol-7-yl)(1-cyclopropyl-1H-1,2,3-triazol-4-yl)methyl)amino)-8-bromo-4-(neopentylamino)quinoline-3-carbonitrile] | 0.804 | 0.019 |  | 
CCN1CCC(n2cc(C(Nc3cc(Cl)c4ncc(C#N)c(Nc5ccc(F)c(Cl)c5)c4c3)c3cncnc3)nn2)CC1 (stereo not shown) [Example 366, 8-chloro-4-((3-chloro-4-fluorophenyl)amino)-6-(((1-(1-ethylpiperidin-4-yl)-1H-1,2,3-triazol-4-yl)(pyrimidin-5-yl)methyl)amino)-quinoline-3-carbonitrile] | 0.336 | 0.005 |  | 
Cc1nc(F)ccc1[C@H](Nc1cc(Cl)c2ncc(C#N)c(NCC(C)(C)C(F)(F)F)c2c1)c1nnn(C2(C(F)F)CC2)c1F [Example 948, (S)-8-chloro-6-(((1-(1-(difluoromethyl)cyclopropyl)-5-fluoro-1H-1,2,3-triazol-4-yl)(6-fluoro-2-methylpyridin-3-yl)methyl)amino)-4-((3,3,3-trifluoro-2,2-dimethylpropyl)amino)-quinoline-3-carbonitrile] |  |  | 0.099 | 0.005
Cc1ncccc1[C@H](Nc1cc(Cl)c2ncc(C#N)c(N[C@H](C)c3ccccc3)c2c1)c1cn(C(C)C)nn1 [Example 230, 8-chloro-6-(((S)-(1-isopropyl-1H-1,2,3-triazol-4-yl)(2-methylpyridin-3-yl)methyl)amino)-4-(((R)-1-phenylethyl)amino)quinoline-3-carbonitrile] | 0.252 | 0.009 |  | 
Cc1nc(F)ccc1[C@H](Nc1cc(C#N)c2ncc(C#N)c(N[C@H](C)C(C)(C)C)c2c1)c1cn(C2(C(F)(F)F)CC2)nn1 [Example 583, 4-(((R)-3,3-dimethylbutan-2-yl)amino)-6-(((S)-(6-fluoro-2-methylpyridin-3-yl)(1-(1-(trifluoromethyl)cyclopropyl)-1H-1,2,3-triazol-4-yl)methyl)amino)quinoline-3,8-dicarbonitrile] | 0.121 | 0.004 |  | 
[2H]C(Nc1cc(Cl)c2ncc(C#N)c(N[C@H](CC)c3ccccc3)c2c1)(c1cn(C2CC2)nn1)c1cc(C#N)cs1 (stereo partly drawn) [Example 123, 8-chloro-6-(((4-cyanothiophen-2-yl)(1-cyclopropyl-1H-1,2,3-triazol-4-yl)methyl-d)amino)-4-(((R)-1-phenylpropyl)amino)quinoline-3-carbonitrile] | 0.193 | 0.006 |  | 
CC(C)(C)CNc1c(C#N)cnc2c(Cl)cc(N[C@H](c3cn(C4(C(N)=O)CCC4)nn3)c3cccc4ncccc34)cc12 [Example 566, (S)-1-(4-(((8-chloro-3-cyano-4-(neopentyl-amino)quinolin-6-yl)amino)(quinolin-5-yl)methyl)-1H-1,2,3-triazol-1-yl)cyclobutane-1-carboxamide] | 0.19 | 0.002 |  | 
CC(C)(CNc1c(C#N)cnc2c(C#N)cc(N[C@H](c3cn(C4(C5CC5)CC4)nn3)c3cccc4ncccc34)cc12)C(F)(F)F [Example 896, (S)-6-(((1-([1,1′-bi(cyclopropan)]-1-yl)-1H-1,2,3-triazol-4-yl)(quinolin-5-yl)methyl)amino)-4-((3,3,3-trifluoro-2,2-dimethylpropyl)amino)quinoline-3,8-dicarbonitrile] |  |  | 0.03 | 0.003
CC(C)(C)CNc1c(C#N)cnc2c(Cl)cc(N[C@H](c3cn(C4(C(F)(F)F)CC4)nn3)c3cccn4nccc34)cc12 [Example 560, (S)-8-chloro-4-(neopentylamino)-6-((pyrazolo[1,5-a]pyridin-4-yl(1-(1-(trifluoromethyl)cyclopropyl)-1H-1,2,3-triazol-4-yl)methyl)amino)quinoline-3-carbonitrile] | 0.287 | 0.011 |  | 
Cc1ncsc1[C@H](Nc1cc(Cl)c2ncc(C#N)c(N[C@H](C)c3ccccc3)c2c1)c1cn(C2CCN(C(C)(C)C)CC2)nn1 [Example 240, 6-(((R)-(1-(1-(tert-butyl)piperidin-4-yl)-1H-1,2,3-triazol-4-yl)(4-methylthiazol-5-yl)methyl)amino)-8-chloro-4-(((R)-1-phenylethyl)amino)quinoline-3-carbonitrile] | 0.631 | 0.016 |  | 
Cc1nc(F)ccc1[C@H](Nc1cc(Cl)c2ncc(C#N)c(NCC(C)(C)C)c2c1)c1cn(C2CC23CC3)nn1 (stereo partly drawn) [Example 766, 8-chloro-6-(((1S)-(6-fluoro-2-methylpyridin-3-yl)(1-(spiro[2.2]pentan-1-yl)-1H-1,2,3-triazol-4-yl)methyl)amino)-4-(neopentylamino)quinoline-3-carbonitrile] | 0.03 | 0.002 |  | 
CC(C)(C)CNc1c(C#N)cnc2c(Cl)cc(N[C@H](c3cn(C4(C(F)(F)F)CC4)nn3)c3cccc4ncsc34)cc12 [Example 417, (S)-6-((benzo[d]thiazol-7-yl(1-(1-(trifluoromethyl)cyclopropyl)-1H-1,2,3-triazol-4-yl)methyl)amino)-8-chloro-4-(neopentylamino)quinoline-3-carbonitrile] | 0.218 | 0.009 |  | 
Cn1c(=O)ccc2c([C@H](Nc3cc(C#N)c4ncc(C#N)c(NCC(C)(C)C)c4c3)c3cn(C4(C(F)(F)F)CC4)nn3)cccc21 [Example 890, (S)-6-(((1-methyl-2-oxo-1,2-dihydroquinolin-5-yl)(1-(1-(trifluoromethyl)cyclopropyl)-1H-1,2,3-triazol-4-yl)methyl)amino)-4-(neopentylamino)quinoline-3,8-dicarbonitrile] |  |  | 0.068 | 0.006
Cc1ncsc1[C@H](Nc1cc(Cl)c2ncc(C#N)c(Nc3ccc(F)c(Cl)c3)c2c1)c1cn(C2CCN(C(C)(C)C)CC2)nn1 [Example 307, (R)-6-(((1-(1-(tert-butyl)piperidin-4-yl)-1H-1,2,3-triazol-4-yl)(4-methylthiazol-5-yl)methyl)amino)-8-chloro-4-((3-chloro-4-fluorophenyl)amino)quinoline-3-carbonitrile] | 0.06 | 0.004 |  | 
